This is an account of results in patent US10792260B2, “Retinopathy treatment” (CHS Pharma, Inc., priority 2013, dated 2020).

Assay [1] deals with ARPE19 cells. As to the kind of experiment: TBHP induced oxidative stress, cell viability by MTS assay. To be noted: for protection against TBHP damage as measured by cell viability: 24 hours pretreatment, varying concentrations of TBHP. On the technique in general: Formazan colour is commonly taken as a measure of viable cells.
Protocol: Cell culture studies using RPE cells—For cell culture experiments human RPE cell line ARPE19 (ATCC # CRL 2302) purchased from American Type Culture Collection (Rockville, Md.) was used. Cells were maintained in DMEM F-12 supplemented with L-glutamine. The culture media also contained 10% fetal bovine serum, 100 units/ml penicillin and 100 ug/ml streptomycin at 37 C and 5% CO2. Cells from passages two to five were treated with either no drug or a range of concentrations of the experimental drugs prior to exposing them to oxidative stress. Oxidative stress was induced chemically by adding tert-butyl hydrogen peroxide (TBHP) or by exposing the cells to UVB light. ARPE19 cells were plated in 96 well plates at a concentration of 10,000 cells/well. Change in cellular viability was measured using the MTS assay kit from Promega (Madison, Wis.).
Experiments involving TBHP induced oxidative stress—ARPE19 cells were grown for 24 hours in 96 well plates in DMEM F-12 complete media. Then they were either treated with no drug or pre-incubated with the experimental drug for 24 hours. The next day the cells were exposed to a range of concentrations (175 μM to 300 μM) of TBHP for 24 hours. On the following day cell viability was measured by the MTS assay (Promega) according to the manufacturer's protocol and which was measured by absorbance at 490 nm using a colorimetric microtiter plate reader (SpectraMax Plus 384; Molecular Devices).
(§2) Cell viability assays—Cellular viability was determined using the CellTiter 96 Aqueous One Cell Proliferation Assay from Promega (Madison, Wis.) as described elsewhere (Marchetti et al, 2009). This assay contains a tertrazolium salt that is converted to formazan dye by the activity of mitochondrial dehydrogenases. The change in color imparted by this conversion was detected by measuring absorbance at 490 nm using a colorimetric microtiter plate reader (Spectramax Plus 384, Molecular Devices).
(§3) Statistical analysis—Unless otherwise mentioned, results of all cell viability experiments represent the mean of three replicates of a representative experiment. The error bars indicate standard deviations. The means were compared using standard t-test and P values <0.05 were considered to be statistically significant.
The test system of assay [2] is ARPE19 cells. As to the kind of experiment: UVB radiation induced damage, cell viability by MTS assay.
Protocol: Cell culture studies using RPE cells—For cell culture experiments human RPE cell line ARPE19 (ATCC # CRL 2302) purchased from American Type Culture Collection (Rockville, Md.) was used. Cells were maintained in DMEM F-12 supplemented with L-glutamine. The culture media also contained 10% fetal bovine serum, 100 units/ml penicillin and 100 ug/ml streptomycin at 37 C and 5% CO2. Cells from passages two to five were treated with either no drug or a range of concentrations of the experimental drugs prior to exposing them to oxidative stress. […] ARPE19 cells were plated in 96 well plates at a concentration of 10,000 cells/well. Change in cellular viability was measured using the MTS assay kit from Promega (Madison, Wis.).
Exposure of RPE cells to UVB radiation—For UV radiation assays, the ARPE19 cells were plated in 96 well plates. After 24 hours of incubation with or without our drug the cells were exposed to UVB light (Ultraspec 2000, Pharmacia Biotech) that emit wavelengths at a range of 290 nm to 370 nm. UVB light at intensities of either 800 mj/cm2 or 1200 mj/cm2 were used for our experiments. The duration of exposure of the two energy levels were determined using the formula: Hλ=t×Eλ, where Hλ is the energy level (J/cm2) t is the duration of exposure in seconds and the Eλ is the irradiance (W/cm2) of the UVB source. Irradiance was measured at 1.3 W/cm2, and the exposure times for energy levels of 800 mj/cm2 and 1200 mj/cm2 were calculated to be 9 minutes 14 seconds and 14 minutes 24 seconds, respectively. Immediately after the UVB exposure, the media was replaced with fresh complete DMEM F-12 medium and after 24 hours of incubation at 37° C. and 5% CO2, cellular viability was measured using the MTS assay.
as §2, §3
Another assay deals with iNOS. As to the kind of experiment: Western blotting of preconditioning marker iNOS in ARPE19 cells. The following applies: RPE cells pretreated for 48 hours, 200 μM. The format is cell-based, human. On the procedure:
(§1) Western blotting protocol—Western blotting was carried out on proteins isolated from ARPE19 cells cultured in 60 mm dishes with no drug or 200 μM sulindac or a combination of 200 μM sulindac and 2 μM chelerythrine. Actin and GAPDH were used as control for standardizing protein concentrations. Two late phase preconditioning markers, Hsp27 and iNOS were detected with antibodies (Sant Cruz Biotechnology).

The subject of the next assay is Hsp27. As to the kind of experiment: Western blotting of preconditioning marker Hsp27 in ARPE19 cells. The assay is classed as cell-based, human. The following applies: RPE cells pretreated for 48 hours, 200 μM. On the procedure:
as §1

A further assay has as its system BALB/c mice. As to the kind of experiment: Photooxidative stress in vivo study (light damage, intravitreal injection). The method, then: Photooxidative stress in vivo study—The procedures for the in vivo experiments conformed to the ARVO Statement for the Use of Animals in Ophthalmic and Vision Research and were approved by the IACUC at FAU. For the in vivo photooxidative stress experiments albino BALB/c mice were divided into two groups. Mice belonging to the control group were kept in normal light of 12 hr light/dark cycle and not injected with any drug. The animals of the experimental group were dark-adapted for 24 hours after which they were anesthetized with ketamine/xylazine and injected intravitrealy with sulindac, total volume injected was 2 μl in each eye. Concentration of injected sulindac was 0.094 μg/μl. To prepare our injection, the sulindac powder was first dissolved in Tris buffer (pH 8.0) at a concentration of 200 mM. This 200 mM stock was further diluted in sterile PBS to get the appropriate dilution required for the injections. The sulindac solution was injected into the right eye and PBS in the left eye. The animals in the experimental group received atropine for pupil dilation followed by exposure to continuous bright white light. The intensity and duration of light exposure was 6000 lux for 24 hours. Following light exposure, animals were kept in normal light cycle for 5 days prior to harvesting the ocular tissues for histological or biochemical analysis.
Biochemical analysis of ocular tissues—After the completion of the treatment, animals were euthanized using isoflurane inhalation and eyes were enucleated. Following enucleation, the lenses were removed and retinas were carefully removed and washed in PBS. The retinas were homogenized in RIPA lysis buffer and total protein was isolated. The retinal protein was used for evaluation of preconditioning markers and rhodopsin through Western blotting.
Analysis of photoreceptor (PR) cell viability—The eyes were enucleated and fixed in 2.5% glutaraldehyde and 2% formaldehyde, bisected along the vertical meridian, embedded, and retinal sections at 50 microns obtained. Photoxidative stress-induced loss of PR cells was quantified in LM sections by counting the number of ONL nuceli from a series of digitized images of retinal sections.

Where [3] appears, read: eyes treated prior to light exposure.
[4] abbreviates: intravitreal 2 μl of 0.094 μg/μl before 6000 lux for 24 hours.
The mark [5] stands for this setting: inhibitor 2 uM added simultaneously with sulindac.

Turning to `O=S(=O)(O)c1cc(O)c(O)c(S(=O)(=O)O)c1` [tiron], in the assay with ARPE19 cells [1] (ROS scavenger 1 uM or 2 uM coincubated with sulindac), the “reversal of sulindac's protection against TBHP” value is listed as “complete reversal”.

As for `CCCCCC(O)CCCC(=O)O` (stereo not drawn) [5-HD, 5-hydroxydecanoic acid], the “reversal of sulindac's protective role against TBHP” value in the assay on ARPE19 cells [1] (mK(ATP) channel blocker 50 uM or 75 uM co-incubated with sulindac) is listed as “almost complete reversal”.

Regarding `CC(=O)c1c(O)c(C)c(O)c(Cc2c(O)c3c(c(C(=O)/C=C/c4ccccc4)c2O)OC(C)(C)C=C3)c1O` [rottlerin], the “reversal of the sulindac protection against UVB” value with ARPE19 cells [2] (inhibitor 3 uM with sulindac) is listed as “no reversal”.

Regarding `CC1=C(CC(=O)O)c2cc(F)ccc2/C1=C\c1ccc(S(C)(=O)=O)cc1` [sulindac sulfone], the “protection against UV damage (cell viability)” value in the assay with ARPE19 cells [2] (200 uM, in place of sulindac) was “complete protection”.

Turning to `CC1=C(CC(=O)O)c2cc(F)ccc2/C1=C\c1ccc([S+](C)[O-])cc1` (stereo not drawn) [sulindac], the “induction of iNOS” value with iNOS was “significant induction”. Also, the “induction of Hsp27” value in the assay on Hsp27 was “significant induction”. The “protection against UVB exposure (cell viability)” value in the assay on ARPE19 cells [2] (200 uM, 24 hours pretreatment, 1200 mj UVB) is “about 50%”. In addition, in the assay with BALB/c mice (setting [3]), the “Hsp27 level in retinal total protein (Western blotting)” value is given as “upregulation” and the “iNOS level in retinal total protein (Western blotting)” value was “upregulation”. In addition, in the assay on BALB/c mice (setting [4]), the “Rhodopsin levels by Western blotting, treated eye compared to PBS-treated eye” value is reported as “higher” and the “protection of photoreceptors against photooxidative stress induced loss of viability (histology)” value was “protection of photoreceptors”. In addition, the “thickness of the photoreceptor cell nuclear layer, greater than PBS-treated eye” value in the assay on BALB/c mice (intravitreal 2 μl of 0.094 μg/μl before 6000 lux for 24 hours, histological sections) is “about 40%”. Also, the “protection against TBHP damage as measured by cell viability” value in the assay on ARPE19 cells [1] (sulindac 125 uM) is reported as “essentially complete protection”. The “protection against TBHP damage as measured by cell viability” value with ARPE19 cells [1] (sulindac 200 uM) is “essentially complete protection”.

Take `COc1ccc2c(c[n+](C)c3c4cc5c(cc4ccc23)OCO5)c1OC` [chelerythrine]: the “reversal of protective effect of sulindac against UV damage” value in the assay with ARPE19 cells [2] (setting [5]) is “significantly reversed the protective effect”. Further, the “reversal of protective effect of sulindac against TBHP damage” value with ARPE19 cells [1] (setting [5]) is recorded as “significantly reversed the protective effect”.

On to `CCC(=O)NC[C@H](Cc1ccc(OCCc2nc(-c3ccccc3)oc2C)cc1)N/C(C)=C\C(=O)c1ccc(C(F)(F)F)cc1` [GW 6471], for which the “effect on sulindac's protection of RPE cells against TBHP induced stress” value with ARPE19 cells [1] (PPAR alpha antagonist added with sulindac) was “prevented the protection”.

For the molecule `O=c1c2nc(Br)n([C@@H]3O[C@@H]4CO[P@@](O)(=S)O[C@H]4[C@H]3O)c2nc2[nH]c(-c3ccccc3)cn12` [Rp-Br-8-PET-cGMPs], the “reversal of protection by sulindac preincubation (UVB damage) on PKG inhibition” value in the assay on ARPE19 cells [2] (PKG inhibitor with sulindac) is on record as “significantly reversed”.
